The record followed here is ChEMBL document CHEMBL4004885, “Synthesis and biological activity of salinomycin-hydroxamic acid conjugates” (Bioorg Med Chem Lett, 2017).

pIC50: −log10 of the molar value. Calls of active or inactive are those of the source. The calls are words filed in the database; no cut-off is given here.

As usually defined, the pIC50 is the negative decadic logarithm of the IC50, by convention in mol/L.

Data set [1] concerns MDA-MB-231. Put plainly: Cytotoxicity against human MDA-MB-231 cells assessed as decrease in cell proliferation at 10 uM after 48 hrs in presence of salinomycin by MTT assay. The format is functional, cell-based.
In data set [2] the test system is MDA-MB-231. In words: Cytotoxicity against human MDA-MB-231 cells assessed as decrease in cell proliferation after 48 hrs in presence of salinomycin by MTT assay. The format is functional, cell-based. Particulars: MDA-MB-231, 48 h.
Data set [3] deals with HT-29. In words: Cytotoxicity against human HT-29 cells assessed as decrease in cell proliferation after 48 hrs by MTT assay. The format is functional, cell-based. As to conditions: HT-29, 48 h.
The test system of data set [4] is HGC-27. Put plainly: Cytotoxicity against human HGC27 cells assessed as decrease in cell proliferation after 48 hrs by MTT assay. It is filed as functional, cell-based. Particulars: HGC-27, 48 h. Background: Tetrazolium assays rely on reduction of a dye to a coloured formazan, in cell work by metabolically active cells.
For data set [5], the system named is MDA-MB-231. In words: Cytotoxicity against human MDA-MB-231 cells assessed as decrease in cell proliferation after 48 hrs by MTT assay. It is filed as functional, cell-based. As to conditions: MDA-MB-231, 48 h.
Data set [6] in a line: Chemical stability in RPMI1640 medium at 10 mg after 72 hrs by 1H NMR method. It is filed as physicochemical.
Data set [7] concerns HT-29. Put plainly: Potency index, ratio of salinomycin IC50 to test compound IC50 for human HT-29 cells. It is filed as functional.
The subject of data set [8] is HGC-27. In words: Potency index, ratio of salinomycin IC50 to test compound IC50 for human HGC27 cells. The format is functional.
The subject of data set [9] is MDA-MB-231. Put plainly: Potency index, ratio of salinomycin IC50 to test compound IC50 for human MDA-MB-231 cells. It is filed as functional.

For the compound `O=C(Cc1ccccc1Br)NO`, the outcome in the data set with MDA-MB-231 [1] was inactive. The pIC50 in the data set on MDA-MB-231 [2] was less than 5.00.

On to `CC[C@@H](C(=O)[C@@H](C)[C@@H](O)[C@H](C)[C@@H]1O[C@@H]([C@@H](CC)C(=O)ONC(=O)/C=C/c2ccccc2)CC[C@@H]1C)[C@H]1O[C@]2(C=C[C@@H](O)[C@]3(CC[C@@](C)([C@H]4CC[C@](O)(CC)[C@H](C)O4)O3)O2)[C@H](C)C[C@@H]1C`, for which the figures for the negative logarithm of the IC50 (pIC50) in the data set with HT-29 [3], in the data set on HGC-27 [4] and in the data set with MDA-MB-231 [5] were 5.14, 5.14 and 5.02, respectively. Further, the Stability entry in data set [6] is reported as “Stable”.

For the compound `CC[C@@H](C(=O)[C@@H](C)[C@@H](O)[C@H](C)[C@@H]1O[C@@H]([C@@H](CC)C(=O)ONC(=O)Cc2ccccc2)CC[C@@H]1C)[C@H]1O[C@]2(C=C[C@@H](O)[C@]3(CC[C@@](C)([C@H]4CC[C@](O)(CC)[C@H](C)O4)O3)O2)[C@H](C)C[C@@H]1C`, the values for the pIC50 with HT-29 [3], in the data set with HGC-27 [4] and in the data set with MDA-MB-231 [5] were 6.05, 5.89 and 6.00, respectively. Besides, the “Ratio IC50” value in the data set with HT-29 [7], in the data set on HGC-27 [8] and in the data set with MDA-MB-231 [9] was 1.5 - 7 each time. Besides, the Stability result in data set [6] was “Stable”.

Take `O=C(NO)c1ccc(Br)cc1`: the outcome with MDA-MB-231 [1] was inactive. In the data set on MDA-MB-231 [2], the pIC50 is less than 5.00.

Regarding `O=C(/C=C/c1ccccc1)NO`, the outcome with MDA-MB-231 [1] was inactive. Also, the pIC50 with MDA-MB-231 [2] was 5.05.

For `CCCCCCCC(=O)NOC(=O)[C@H](CC)[C@H]1CC[C@H](C)[C@H]([C@@H](C)[C@H](O)[C@H](C)C(=O)[C@H](CC)[C@H]2O[C@]3(C=C[C@@H](O)[C@]4(CC[C@@](C)([C@H]5CC[C@](O)(CC)[C@H](C)O5)O4)O3)[C@H](C)C[C@@H]2C)O1`, the figures for the negative logarithm of the IC50 (pIC50) in the data set with HT-29 [3], with HGC-27 [4] and in the data set on MDA-MB-231 [5] were 6.02, 5.87 and 5.57, respectively. Also, the “Ratio IC50” value in the data set with HT-29 [7], with HGC-27 [8] and in the data set with MDA-MB-231 [9] was 1.5 - 2.5 each time. Further, the Stability entry in [6] is listed as “Stable”.

Take `CC[C@@H](C(=O)[C@@H](C)[C@@H](O)[C@H](C)[C@@H]1O[C@@H]([C@@H](CC)C(=O)O)CC[C@@H]1C)[C@H]1O[C@]2(C=C[C@@H](O)[C@]3(CC[C@@](C)([C@H]4CC[C@](O)(CC)[C@H](C)O4)O3)O2)[C@H](C)C[C@@H]1C` [SALINOMYCIN]: the values for the negative logarithm of the IC50 (pIC50) in the data set with HT-29 [3], in the data set on HGC-27 [4] and in the data set with MDA-MB-231 [5] were 5.84, 5.59 and 5.16 to 5.19, respectively. Also, the Stability result in [6] was “Stable”.

Consider `CC[C@@H](C(=O)[C@@H](C)[C@@H](O)[C@H](C)[C@@H]1O[C@@H]([C@@H](CC)C(=O)ONC(=O)Cc2ccccc2Br)CC[C@@H]1C)[C@H]1O[C@]2(C=C[C@@H](O)[C@]3(CC[C@@](C)([C@H]4CC[C@](O)(CC)[C@H](C)O4)O3)O2)[C@H](C)C[C@@H]1C`, for which the pIC50 is 6.10 with HT-29 [3], 6.12 with HGC-27 [4] and 6.03 in the data set on MDA-MB-231 [5]. Besides, the Stability entry in data set [6] is recorded as “Stable”.

For `CC[C@@H](C(=O)[C@@H](C)[C@@H](O)[C@H](C)[C@@H]1O[C@@H]([C@@H](CC)C(=O)ONC(=O)c2ccccc2)CC[C@@H]1C)[C@H]1O[C@]2(C=C[C@@H](O)[C@]3(CC[C@@](C)([C@H]4CC[C@](O)(CC)[C@H](C)O4)O3)O2)[C@H](C)C[C@@H]1C`, the figures for the pIC50 in the data set on HT-29 [3], in the data set with HGC-27 [4] and with MDA-MB-231 [5] were 6.07, 6.04 and 5.65, respectively. Further, the “Ratio IC50” value with HT-29 [7], in the data set on HGC-27 [8] and in the data set on MDA-MB-231 [9] was 1.5 - 7 each time. Also, the Stability entry in data set [6] was “Stable”.

For `O=C(NO)c1ccccc1` [BENZOHYDROXAMATE], the result with MDA-MB-231 [1] was inactive. Moreover, the negative logarithm of the IC50 (pIC50) in the data set with MDA-MB-231 [2] was 5.01.

Take `CC[C@@H](C(=O)[C@@H](C)[C@@H](O)[C@H](C)[C@@H]1O[C@@H]([C@@H](CC)C(=O)ONC(C)=O)CC[C@@H]1C)[C@H]1O[C@]2(C=C[C@@H](O)[C@]3(CC[C@@](C)([C@H]4CC[C@](O)(CC)[C@H](C)O4)O3)O2)[C@H](C)C[C@@H]1C`: the pIC50 in the data set on HT-29 [3] was 5.63; in the data set with HGC-27 [4], 5.65; in the data set with MDA-MB-231 [5], 5.42. Moreover, the Stability entry in data set [6] was “Stable”.

Regarding `CC[C@@H](C(=O)[C@@H](C)[C@@H](O)[C@H](C)[C@@H]1O[C@@H]([C@@H](CC)C(=O)ONC(=O)c2ccccc2O)CC[C@@H]1C)[C@H]1O[C@]2(C=C[C@@H](O)[C@]3(CC[C@@](C)([C@H]4CC[C@](O)(CC)[C@H](C)O4)O3)O2)[C@H](C)C[C@@H]1C`, the figures for the pIC50 in the data set on HT-29 [3], with HGC-27 [4] and with MDA-MB-231 [5] were 6.06, 6.04 and 5.56, respectively. For the same compound, in data set [6], the Stability entry was “Stable”.

Take `C/C=C/C=C/C(=O)NO`: the outcome with MDA-MB-231 [1] was inactive. Besides, the pIC50 in the data set on MDA-MB-231 [2] was 5.10.

In the case of `CC[C@@H](C(=O)[C@@H](C)[C@@H](O)[C@H](C)[C@@H]1O[C@@H]([C@@H](CC)C(=O)ONC(=O)CCc2ccccc2)CC[C@@H]1C)[C@H]1O[C@]2(C=C[C@@H](O)[C@]3(CC[C@@](C)([C@H]4CC[C@](O)(CC)[C@H](C)O4)O3)O2)[C@H](C)C[C@@H]1C`, the negative logarithm of the IC50 (pIC50) is 6.10 in the data set on HT-29 [3], 5.98 in the data set with HGC-27 [4] and 5.72 in the data set on MDA-MB-231 [5]. Besides, the “Ratio IC50” value with HT-29 [7], in the data set with HGC-27 [8] and in the data set on MDA-MB-231 [9] was 1.5 - 7 throughout. In data set [6], the Stability result was “Stable”.

Take `CC(=O)O[C@H]1C(=O)[C@@]2(C)[C@H]([C@H](OC(=O)c3ccccc3)[C@]3(O)C[C@H](OC(=O)[C@H](O)[C@@H](NC(=O)c4ccccc4)c4ccccc4)C(C)=C1C3(C)C)[C@]1(OC(C)=O)CO[C@@H]1C[C@@H]2O` [PACLITAXEL]: the negative logarithm of the IC50 (pIC50) in the data set with MDA-MB-231 [5] is 7.10.

Take `O=C(Cc1ccccc1)NO` [PHENYLACETOHYDROXAMIC ACID]: in the data set with MDA-MB-231 [1], the result was inactive. Besides, in the data set on MDA-MB-231 [2], the negative logarithm of the IC50 (pIC50) is 5.01.

For the compound `CC[C@@H](C(=O)[C@@H](C)[C@@H](O)[C@H](C)[C@@H]1O[C@@H]([C@@H](CC)C(=O)ONC(=O)c2ccc(Br)cc2)CC[C@@H]1C)[C@H]1O[C@]2(C=C[C@@H](O)[C@]3(CC[C@@](C)([C@H]4CC[C@](O)(CC)[C@H](C)O4)O3)O2)[C@H](C)C[C@@H]1C`, the pIC50 was 6.15 with HT-29 [3], 6.29 with HGC-27 [4] and 6.03 with MDA-MB-231 [5]. Moreover, the “Ratio IC50” value in the data set on HGC-27 [8] and in the data set with MDA-MB-231 [9] was 7 throughout. Further, the Stability entry in [6] is “Stable”.

As to `C/C=C/C=C/C(=O)NOC(=O)[C@H](CC)[C@H]1CC[C@H](C)[C@H]([C@@H](C)[C@H](O)[C@H](C)C(=O)[C@H](CC)[C@H]2O[C@]3(C=C[C@@H](O)[C@]4(CC[C@@](C)([C@H]5CC[C@](O)(CC)[C@H](C)O5)O4)O3)[C@H](C)C[C@@H]2C)O1`, the values for the pIC50 in the data set on HT-29 [3], with HGC-27 [4] and in the data set with MDA-MB-231 [5] were 5.64, 5.58 and 5.42, respectively. The Stability entry in data set [6] was “Stable”.
